Test [1] deals with T1, Thyroxine-binding globulin (Homo sapiens) (UniProt P05543).
T1 sequence (whole entry): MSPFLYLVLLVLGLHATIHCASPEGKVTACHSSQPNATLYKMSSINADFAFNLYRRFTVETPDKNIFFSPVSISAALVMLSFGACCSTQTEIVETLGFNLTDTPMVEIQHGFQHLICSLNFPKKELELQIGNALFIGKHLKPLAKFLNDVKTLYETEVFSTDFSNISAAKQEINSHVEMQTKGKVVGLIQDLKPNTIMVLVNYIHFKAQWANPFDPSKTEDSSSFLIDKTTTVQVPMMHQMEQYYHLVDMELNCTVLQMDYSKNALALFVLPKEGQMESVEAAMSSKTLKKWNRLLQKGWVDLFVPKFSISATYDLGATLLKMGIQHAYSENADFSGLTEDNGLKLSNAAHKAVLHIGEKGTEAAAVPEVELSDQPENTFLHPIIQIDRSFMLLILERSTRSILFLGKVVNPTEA
Kind of test: Binding affinity to thyroxine binding globulin (unknown origin) relative to T4.

For test [2], the system named is Rattus norvegicus. Kind of test: In vivo antigoiter activity in rat. The class given is functional.
The species entered for test [3] is Rattus norvegicus. Kind of test: Displacement of radiolabelled L-T3 from thyroid hormone receptor in intact rat hepatic nuclei relative to T3.

`Cc1cc(Oc2c(I)cc(CC(N)C(=O)O)cc2I)cc(C)c1O` (configuration not stated): in test [1], the RBA is 0.29% and the log(%) was -0.538. In the test on Rattus norvegicus [2], the Activity came to 9.04% and the “log(%)” value was 0.956. In the test filed under Rattus norvegicus [3], this compound registered an RBA of 6.2% and a log(%) of 0.792.
In test [1], `N[C@@H](Cc1cc(I)c(Oc2ccc(O)c(I)c2)c(I)c1)C(=O)O` [LIOTHYRONINE] gave an RBA of 9% and a log(%) of 0.954. Further, in the test with Rattus norvegicus [2], the Activity was 100% and the “log(%)” value came out at 2.
On the same counts, the results for `NC(Cc1cc(I)c(Oc2ccc(O)c(O)c2)c(I)c1)C(=O)O` (configuration not stated) are 0.06%, -1.22, 0.27% and -0.569.
As for `CCc1cc(Oc2c(I)cc(CC(N)C(=O)O)cc2I)ccc1O` (configuration not stated), in test [1], the RBA turned out to be 1.59% and the log(%) was determined as 0.201. In addition, in the test with Rattus norvegicus [2], the Activity is listed as 40.8% and the “log(%)” value amounted to 1.611. Further, in the test filed under Rattus norvegicus [3], the RBA was found to be 21% and the log(%) was 1.32.
For `CC(C)(C)c1cc(Oc2c(I)cc(CC(N)C(=O)O)cc2I)ccc1O` (configuration not stated), in test [1], the RBA was 0.67% and the log(%) was -0.174. In the test on Rattus norvegicus [2], the Activity came out at 21.7% and the “log(%)” value came out at 1.336. In addition, in the test listed under Rattus norvegicus [3], the RBA is 38.5% and the log(%) was 1.59.
Turning to `NC(Cc1cc(I)c(Oc2cc(I)c(O)c(I)c2)c(I)c1)C(=O)O` (configuration not stated) [THYROXINE], in test [1], the RBA was determined as 100% and the log(%) turned out to be 2. In the test on Rattus norvegicus [2], the Activity is recorded as 18.1% and the “log(%)” value is recorded as 1.258. In the test listed under Rattus norvegicus [3], this compound had an RBA of 12.5% and a log(%) of 1.1.
In the case of `NC(Cc1cc(I)c(Oc2ccc(O)cc2)c(I)c1)C(=O)O` (configuration not stated), in test [1], the RBA was 0.07% and the log(%) was -1.16. In the test with Rattus norvegicus [2], the Activity amounted to 0.81% and the “log(%)” value is given as -0.092. Also, in the test listed under Rattus norvegicus [3], the RBA stood at 0.3% and the log(%) is -0.523.
For the compound `NC(Cc1cc(I)c(Oc2ccc(O)c(-c3ccccc3)c2)c(I)c1)C(=O)O` (configuration not stated), the RBA in test [1] came out at 0.04%; in the test listed under Rattus norvegicus [3], 2%. For the same compound, the log(%) is -1.4 in test [1], 0.308 with Rattus norvegicus [2] and 0.301 in the test filed under Rattus norvegicus [3]. In addition, the Activity in the test with Rattus norvegicus [2] is listed as 2.03%.
On to `CC(C)c1cc(Oc2c(I)cc(CC(N)C(=O)O)cc2I)ccc1O` (configuration not stated), for which, in test [1], the RBA was 3.53% and the log(%) amounted to 0.548. Further, in the test with Rattus norvegicus [2], the Activity turned out to be 142.1% and the “log(%)” value is 2.153. For the same compound, in the test listed under Rattus norvegicus [3], the RBA worked out at 100% and the log(%) stood at 2.
As to `Cc1cc(Oc2c(I)cc(CC(N)C(=O)O)cc2I)ccc1O` (configuration not stated), in test [1], the RBA was determined as 0.28% and the log(%) was -0.553. For the same compound, in the test on Rattus norvegicus [2], the Activity was determined as 14.47% and the “log(%)” value came out at 1.16. In the test listed under Rattus norvegicus [3], this compound returned an RBA of 13.5% and a log(%) of 1.13.
For the compound `CC(C)Cc1cc(Oc2c(I)cc(CC(N)C(=O)O)cc2I)ccc1O` (configuration not stated), in test [1], the RBA came to 0.1% and the log(%) was -1. Further, in the test on Rattus norvegicus [2], the Activity is recorded as 7.74% and the “log(%)” value came out at 0.889. Further, in the test listed under Rattus norvegicus [3], the RBA was found to be 20% and the log(%) came to 1.3.

Values taken from ChEMBL document CHEMBL3272192, “Thyroxine analogues. 23. Quantitative structure-activity correlation studies of in vivo and in vitro thyromimetic activities” (1977).
